From US20240360075A1, “N-SUBSTITUTED C6 CYCLYL CARBOXAMIDE COMPOUNDS AND USES THEREOF” (ALCON INC., priority 2023, published 2024)

Biological target: T1, TRPM8 (Homo sapiens, UniProt Q7Z2W7)
T1 construct: purchased Eurofins (Cerep) item #3316
Test: TRPM8 Human Transient Potential Ion Channel Cell Based Agonist Calcium Flux Assay (Eurofins Cerep item #3316)
Conditions: for Percent Agonist / Emax: control activator ligand icilin; for EC50: room temperature; for Emax: read-out: Percent Agonist
Text: Compounds can be tested using the commercially available kit from Eurofins “TRPM8 Human Transient Potential Ion Channel Cell Based Agonist Calcium Flux Assay, Cerep” item #3316, or using the assay, referenced by Eurofins, and described in Behrendt et al. “Characterization of the mouse cold-menthol receptor TRPM8 and vanilloid receptor type-1 VR1 using a fluorometric imaging plate reader (FLIPR) assay,” Br J Pharmacol. 2004 Feb;141(4):737-45, which are each incorporated herein by reference. […] 4.
The assay is done at room temperature and measures calcium flux.

T1 sequence (Q7Z2W7 whole entry): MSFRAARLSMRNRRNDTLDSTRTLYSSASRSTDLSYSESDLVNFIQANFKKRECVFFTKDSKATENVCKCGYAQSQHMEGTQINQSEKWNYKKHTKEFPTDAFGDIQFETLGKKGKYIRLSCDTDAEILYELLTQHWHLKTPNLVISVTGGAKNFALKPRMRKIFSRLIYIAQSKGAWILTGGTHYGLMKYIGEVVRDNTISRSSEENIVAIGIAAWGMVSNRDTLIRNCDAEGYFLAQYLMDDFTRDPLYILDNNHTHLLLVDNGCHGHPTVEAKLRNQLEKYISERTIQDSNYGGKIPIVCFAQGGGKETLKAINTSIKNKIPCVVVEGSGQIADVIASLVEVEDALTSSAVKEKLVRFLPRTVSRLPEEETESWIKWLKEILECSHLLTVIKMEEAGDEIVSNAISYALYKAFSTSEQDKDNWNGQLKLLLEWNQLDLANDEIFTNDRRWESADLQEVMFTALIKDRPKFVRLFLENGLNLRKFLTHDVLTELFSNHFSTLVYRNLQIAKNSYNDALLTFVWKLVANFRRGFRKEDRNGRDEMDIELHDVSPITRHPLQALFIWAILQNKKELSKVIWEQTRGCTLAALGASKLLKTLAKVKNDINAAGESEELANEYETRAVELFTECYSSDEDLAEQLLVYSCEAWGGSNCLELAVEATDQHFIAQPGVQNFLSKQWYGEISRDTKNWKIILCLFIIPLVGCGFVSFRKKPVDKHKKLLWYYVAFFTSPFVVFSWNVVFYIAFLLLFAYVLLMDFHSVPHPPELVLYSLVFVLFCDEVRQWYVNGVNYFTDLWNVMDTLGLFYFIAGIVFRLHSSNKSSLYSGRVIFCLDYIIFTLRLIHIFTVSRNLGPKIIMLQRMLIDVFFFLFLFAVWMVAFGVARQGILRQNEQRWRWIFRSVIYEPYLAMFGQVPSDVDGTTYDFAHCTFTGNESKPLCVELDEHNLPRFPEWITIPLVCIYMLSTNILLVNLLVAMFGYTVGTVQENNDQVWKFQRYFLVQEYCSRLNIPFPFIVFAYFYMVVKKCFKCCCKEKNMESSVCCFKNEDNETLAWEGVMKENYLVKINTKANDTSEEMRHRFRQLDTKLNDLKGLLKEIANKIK

Row | Structure (SMILES) | Percent Agonist | EC50 | Emax
1 | CC(C)[C@@H]1CC[C@@H](C)C[C@H]1C(=O)NC1CC2C(C1)C2(F)F (stereo partly drawn) [92 or 102] | >50% | < 100 nM | –
2 | CC(C)[C@@H]1CC[C@@H](C)C[C@H]1C(=O)NC1CC2C(C1)C2(F)F (stereo partly drawn) [102 or 92] | >75% | < 500 nM | –
3 | COc1ccc(NC(=O)[C@@H]2C[C@H](C)CC[C@H]2C(C)C)cc1 [Compound 1] | 100% | 24 nM | –
4 | CC(C)[C@@H]1CC[C@@H](C)C[C@H]1C(=O)Nc1ccc(N2CCN(C)CC2)cc1 [Compound 2] | – | < 500 nM | > 100%
5 | COCCOc1ccc(NC(=O)[C@@H]2C[C@H](C)CC[C@H]2C(C)C)cc1 [Compound 3] | – | < 500 nM | > 75%
6 | CC(C)[C@@H]1CC[C@@H](C)C[C@H]1C(=O)Nc1ccc2c(c1)B(O)OC2 [Compound 4] | – | < 100 nM | > 50%
7 | COCCOCCOc1ccc(NC(=O)[C@@H]2C[C@H](C)CC[C@H]2C(C)C)cc1 [Compound 5] | – | < 500 nM | > 75%
8 | CC(C)[C@@H]1CC[C@@H](C)C[C@H]1C(=O)Nc1ccc(C2CC2)cc1 [Compound 6] | – | < 100 nM | > 75%
9 | COCCOCCOc1cccc(NC(=O)[C@@H]2C[C@H](C)CC[C@H]2C(C)C)c1 [Compound 9] | – | < 5000 nM | > 75%
10 | COc1ccc(CNC(=O)[C@@H]2C[C@H](C)CC[C@H]2C(C)C)cc1 [Compound 10] | – | < 5000 nM | > 75%
11 | CC(C)[C@@H]1CC[C@@H](C)C[C@H]1C(=O)Nc1ccc(OCCN(C)C)cc1 [Compound 11] | – | < 500 nM | > 75%
12 | CC(C)[C@@H]1CC[C@@H](C)C[C@H]1C(=O)Nc1ccc(CO)cc1 [Compound 15] | – | < 100 nM | > 75%
13 | CC(C)[C@@H]1CC[C@@H](C)C[C@H]1C(=O)Nc1ccc(CCO)cc1 [Compound 17] | – | < 100 nM | > 75%
14 | CC(C)[C@@H]1CC[C@@H](C)C[C@H]1C(=O)Nc1ccc(N2CCOCC2)cc1 [Compound 18] | – | < 100 nM | > 50%
15 | CC(C)[C@@H]1CC[C@@H](C)C[C@H]1C(=O)Nc1ccc(OCCN2CCCC2)cc1 [Compound 19] | – | < 500 nM | > 75%
16 | CC(C)[C@@H]1CC[C@@H](C)C[C@H]1C(=O)Nc1ccc(C2(CCO)COC2)cc1 [Compound 20] | – | < 500 nM | > 100%
17 | CC(C)[C@@H]1CC[C@@H](C)C[C@H]1C(=O)Nc1ccc(C2(O)COC2)cc1 [Compound 21] | – | < 100 nM | > 75%

Row | Structure (SMILES) | Percent Agonist | EC50 | Emax
18 | CC(C)[C@@H]1CC[C@@H](C)C[C@H]1C(=O)Nc1ccc(B2OC(C)(C)C(C)(C)O2)cc1 [Compound 22] | – | < 500 nM | > 100%
19 | CC(C)[C@@H]1CC[C@@H](C)C[C@H]1C(=O)Nc1cccc(C2(O)COC2)c1 [Compound 23] | – | < 500 nM | > 75%
20 | CCOC(=O)CC1(c2ccc(NC(=O)[C@@H]3C[C@H](C)CC[C@H]3C(C)C)cc2)COC1 [Compound 24] | – | < 500 nM | > 100%
21 | CC(C)[C@@H]1CC[C@@H](C)C[C@H]1C(=O)NC1CN(CC(=O)OC(C)(C)C)C1 [Compound 30] | – | > 10000 nM | –
22 | COC(=O)C12CC(NC(=O)[C@@H]3C[C@H](C)CC[C@H]3C(C)C)(C1)C2 [Compound 31] | – | < 100 nM | > 75%
23 | CC(C)[C@@H]1CC[C@@H](C)C[C@H]1C(=O)NC1CCS(=O)(=O)CC1 [Compound 36] | – | < 10000 nM | > 75%
24 | COC(=O)NC12CC(NC(=O)[C@@H]3C[C@H](C)CC[C@H]3C(C)C)(C1)C2 [Compound 37] | – | < 1000 nM | > 100%
25 | COC(=O)CC12CC(NC(=O)[C@@H]3C[C@H](C)CC[C@H]3C(C)C)(C1)C2 [Compound 43] | – | < 1000 nM | > 75%
26 | CC(C)[C@@H]1CC[C@@H](C)C[C@H]1C(=O)NC12CCC(CO)(CC1)C2 [Compound 46] | – | < 500 nM | > 100%
27 | CC(C)[C@@H]1CC[C@@H](C)C[C@H]1C(=O)NC12CC(NC(=O)CO)(C1)C2 [Compound 47] | – | < 500 nM | > 100%
28 | CON(C)C(=O)C12CC(NC(=O)[C@@H]3C[C@H](C)CC[C@H]3C(C)C)(C1)C2 [Compound 49] | – | < 500 nM | > 75%
29 | CO[C@H]1CC[C@H](NC(=O)[C@@H]2C[C@H](C)CC[C@H]2C(C)C)CC1 [Compound 50] | – | < 500 nM | > 100%
30 | CC(C)[C@@H]1CC[C@@H](C)C[C@H]1C(=O)NC12CC(C(=O)OC(C)(C)C)(C1)C2 [Compound 51] | – | < 100 nM | > 75%
31 | COCCO[C@H]1CC[C@H](NC(=O)[C@@H]2C[C@H](C)CC[C@H]2C(C)C)CC1 [Compound 52] | – | < 1000 nM | > 100%
32 | CC(C)[C@@H]1CC[C@@H](C)C[C@H]1C(=O)NC12CC(C(=O)O)(C1)C2 [Compound 53] | – | > 10000 nM | –
33 | COC12CCC(NC(=O)[C@@H]3C[C@H](C)CC[C@H]3C(C)C)(CC1)CC2 [Compound 55] | – | < 100 nM | > 75%
34 | COC(=O)C12CCC(NC(=O)[C@@H]3C[C@H](C)CC[C@H]3C(C)C)(CC1)CC2 [Compound 57] | – | < 1000 nM | > 75%

Now from value to compound:

Row | Percent Agonist | EC50 | Emax | Structure (SMILES)
35 | – | < 100 nM | > 75% | COC12CC(NC(=O)[C@@H]3C[C@H](C)CC[C@H]3C(C)C)(C1)C2 [Compound 25]
36 | – | < 1000 nM | > 75% | COCCN1CC(NC(=O)[C@@H]2C[C@H](C)CC[C@H]2C(C)C)C1 [Compound 26]
37 | – | < 5000 nM | > 75% | CC(C)[C@@H]1CC[C@@H](C)C[C@H]1C(=O)NC12CC(C#N)(C1)C2 [Compound 27]
38 | – | < 10000 nM | > 75% | CC(C)[C@@H]1CC[C@@H](C)C[C@H]1C(=O)NC1CN(CCO)C1 [Compound 28]
39 | – | < 1000 nM | > 100% | CC(C)[C@@H]1CC[C@@H](C)C[C@H]1C(=O)NC12CC(F)(C1)C2 [Compound 29]
40 | – | < 2000 nM | > 75% | CC(C)[C@@H]1CC[C@@H](C)C[C@H]1C(=O)NC1CC2(COC2)C1 [Compound 32]
41 | – | < 1000 nM | > 100% | CC(C)[C@@H]1CC[C@@H](C)C[C@H]1C(=O)NC12CC(CO)(C1)C2 [Compound 33]
42 | – | < 1000 nM | > 75% | CC(C)[C@@H]1CC[C@@H](C)C[C@H]1C(=O)N[C@H]1CC[C@H](N)C1 [Compound 34]
43 | – | < 100 nM | > 75% | COCC12CC(NC(=O)[C@@H]3C[C@H](C)CC[C@H]3C(C)C)(C1)C2 [Compound 35]
44 | – | < 500 nM | > 75% | CC(C)[C@@H]1CC[C@@H](C)C[C@H]1C(=O)NC1COC1 [Compound 38]
45 | – | < 1000 nM | > 75% | CC(C)[C@@H]1CC[C@@H](C)C[C@H]1C(=O)NC1CC2(CCCO2)C1 (stereo partly drawn) [Compound 44]
46 | – | < 1000 nM | > 100% | CC(C)[C@@H]1CC[C@@H](C)C[C@H]1C(=O)NC12CC(CCO)(C1)C2 [Compound 45]
47 | – | < 500 nM | > 50% | COC1CC(NC(=O)[C@@H]2C[C@H](C)CC[C@H]2C(C)C)C1 (stereo partly drawn) [Compound 48]
48 | – | > 10000 nM | > 75% | CC(C)[C@@H]1CC[C@@H](C)C[C@H]1C(=O)NC1CCN(C)CC1 [Compound 54]
49 | – | < 10000 nM | > 75% | CC(C)[C@@H]1CC[C@@H](C)C[C@H]1C(=O)NCC1COC1 [Compound 56]
